Series [1] is described as follows: Example 3: turbidity of concentrated stabilizing replenisher after passage of time. The conditions noted are these: 40° C.; for Turbidity after Passage of Time: 2.0 mol. The series is classed as physicochemical. More on the design: key to Turbidity after Passage of Time: E: Neither turbidity nor precipitation.; G: Turbidity occurred very slightly.; M: Slightly precipitation formed at the bottom of the vessel in addition to turbidity.; B: Precipitation layer of 5 mm or more formed on the bottom of the vessel. The method, then:
One liter of the concentrated stabilizing replenisher shown below was prepared and filled in a 1.2 liter polyethylene bottle.
After allowing to stand the concentrated solution thus-prepared at 40° C. for 1 month or 6 months, the turbidity of the solution was visually observed.
In addition, the evaluation standards of the turbidity of the solution with the passage of time in Table C are as follows.

Series [2] is described as follows: Example 1: evaluation of image storage stability (magenta fading), stabilizing solution. The conditions noted are these: 2 weeks 60° C. 20% RH. The procedure:
In addition, the time for the stabilization step was changed by changing the length of the processing rack.
Thereafter, the sample was allowed to stand for 2 weeks under the conditions of 60° C. 20% RH and then the magenta density was measured again. Thus, magenta fading was evaluated by the reduced magenta density in the density stage that the magenta density after processing was 1.5. (M fading)

Another series relates to human body. Particulars: cited from earlier work.
Series [3] is described as follows: Example 2: fading of the magenta density at intermediate density portion. The conditions noted are these: formaldehyde 4.0 mmol, no formula (I) or (II) additive; 2 weeks 60° C., 70% RH. The method, then: The following processing steps were carried out using the following processing solutions and a cine type automatic processor.
According to a sample, fading of the magenta density at the intermediate density portion and the occurrence of yellow stain at the minimum density portion were observed.

The nature of series [4]: Example 6: image storage stability (magenta fading), image stabilizer in conditioning bath. The procedure: The same processing steps as in Example 4 were carried out except for changing the conditioning solution and the stabilizing solution as follows.
In this case, the time for the final stabilizing step was one minute and the time for the conditioning step was changed as shown in Table E in the processing.
By using the same method as in Example 1, the image storage stability of the processed film obtained and the vapor pressure of formaldehyde were evaluated.

The conditions of series [5]: water.

Where only a bound is given, the exact number is not on record here.

As for `C=O` [Formaldehyde, reference compound], the “Turbidity after Passage of Time” value in series [1] (1 month) and in series [1] (6 months) was “M” throughout. For the same molecule, the “turbidity / precipitates on storage (in words)” value in series [1] (concentrated stabilizing replenisher, 1 month or 6 months) is “white floatings precipitates accumulated on the bottom of the vessel”. Besides, the “M Fading” value in series [2] (5 mmol/l, stabilization time 10 sec.) stood at 0.20; in series [2] (5 mmol/l, stabilization time 20 sec.) it was 0.15; in series [2] (5 mmol/l, stabilization time 60 sec.), 0.08; in series [2] (27 mmol/l, stabilization time 10 sec.), 0.03; in series [2] (27 mmol/l, stabilization time 20 sec.), 0.00; in series [2] (27 mmol/l, stabilization time 60 sec.), 0.00. Further, the “M Fading” value in series [4] (3 mmol/l, time of conditioning bath 40 sec.) is 0.11; in series [4] (3 mmol/l, time of conditioning bath 90 sec.), 0.00; in series [4] (3 mmol/l, time of conditioning bath 120 sec.), 0.00; in series [4] (13 mmol/l, time of conditioning bath 40 sec.) it was 0.03; in series [4] (13 mmol/l, time of conditioning bath 90 sec.) it was 0.00; in series [4] (13 mmol/l, time of conditioning bath 120 sec.), 0.00. The “allowable concentration in a working environment” value with human body (Japan Association of Industrial Health) is on record as not above 0.5 ppm. Further, the “harm on inhalation (in words)” value in the series with human body (human body) is “harmful for the human body”. This molecule showed a M-Fading in series [3] of 0.15.

The pKa is the pH at which an ionisable group is half protonated. `C=CCNCC=C` [II-3] gave a pKa in series [5] of 9.3.

Values taken from patent US5270148A, “Processing solution for silver halide color photographic materials and method for processing the materials with the processing solution” (priority 1991, dated 1993).
